Calls of active or inactive are those of the source. The calls are words filed in the database; no cut-off is given here.
What was measured:
[1] = target: Wee1-like protein kinase (Homo sapiens) (UniProt P30291); experiment: Inhibition of Wee1 K2 labeling site in human Huh-7 cells at 10 uM by KiNativ Profiling analysis relative to control; type: cell-based
[2] = target: cAMP-dependent protein kinase catalytic subunit PRKX (Homo sapiens) (UniProt P51817); experiment: Inhibition of PRKX (unknown origin) at 10 uM by Ambit Kinomescan binding assay
[3] = target: Dual specificity testis-specific protein kinase 1 (Homo sapiens) (UniProt Q15569); experiment: Inhibition of TESK1 (unknown origin) at 10 uM by Ambit Kinomescan binding assay
[4] = target: T1, Acylglycerol kinase, mitochondrial (Homo sapiens) (UniProt Q53H12); experiment: Inhibition of AGK ATP labeling site in human A-375 cells at 0.05 uM by KiNativ Profiling analysis relative to control; type: cell-based
T1 sequence (whole entry): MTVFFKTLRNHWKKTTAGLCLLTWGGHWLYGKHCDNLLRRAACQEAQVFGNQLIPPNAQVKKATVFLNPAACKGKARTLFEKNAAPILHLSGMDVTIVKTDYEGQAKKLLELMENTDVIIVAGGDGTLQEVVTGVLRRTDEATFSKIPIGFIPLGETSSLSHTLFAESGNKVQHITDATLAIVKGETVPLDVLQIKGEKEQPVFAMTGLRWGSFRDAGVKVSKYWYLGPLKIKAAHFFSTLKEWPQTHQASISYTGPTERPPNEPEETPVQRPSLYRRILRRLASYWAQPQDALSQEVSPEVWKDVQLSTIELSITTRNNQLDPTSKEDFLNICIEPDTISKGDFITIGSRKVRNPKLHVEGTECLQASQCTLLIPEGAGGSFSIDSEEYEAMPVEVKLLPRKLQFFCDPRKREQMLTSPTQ

[5] = target: 1-phosphatidylinositol 3-phosphate 5-kinase (Homo sapiens) (UniProt Q9Y2I7); experiment: Inhibition of PIP5K3 ATP labeling site in human A-375 cells at 5 uM by KiNativ Profiling analysis relative to control; type: cell-based
[6] = target: Serine/threonine-protein kinase SMG1 (Homo sapiens) (UniProt Q96Q15); experiment: Inhibition of SMG1 ATP labeling site harbouring SYPYLFKGLEDLHLDER in human A-375 cells at 5 uM by KiNativ Profiling analysis relative to control; type: cell-based
[7] = target: T2, Mitogen-activated protein kinase kinase kinase 2 (Homo sapiens) (UniProt Q9Y2U5); experiment: Inhibition of MAP3K2 Lys2 labeling site in human Huh-7 cell lysate at 1 uM by KiNativ Profiling analysis relative to control; type: subcellular
T2 sequence (whole entry): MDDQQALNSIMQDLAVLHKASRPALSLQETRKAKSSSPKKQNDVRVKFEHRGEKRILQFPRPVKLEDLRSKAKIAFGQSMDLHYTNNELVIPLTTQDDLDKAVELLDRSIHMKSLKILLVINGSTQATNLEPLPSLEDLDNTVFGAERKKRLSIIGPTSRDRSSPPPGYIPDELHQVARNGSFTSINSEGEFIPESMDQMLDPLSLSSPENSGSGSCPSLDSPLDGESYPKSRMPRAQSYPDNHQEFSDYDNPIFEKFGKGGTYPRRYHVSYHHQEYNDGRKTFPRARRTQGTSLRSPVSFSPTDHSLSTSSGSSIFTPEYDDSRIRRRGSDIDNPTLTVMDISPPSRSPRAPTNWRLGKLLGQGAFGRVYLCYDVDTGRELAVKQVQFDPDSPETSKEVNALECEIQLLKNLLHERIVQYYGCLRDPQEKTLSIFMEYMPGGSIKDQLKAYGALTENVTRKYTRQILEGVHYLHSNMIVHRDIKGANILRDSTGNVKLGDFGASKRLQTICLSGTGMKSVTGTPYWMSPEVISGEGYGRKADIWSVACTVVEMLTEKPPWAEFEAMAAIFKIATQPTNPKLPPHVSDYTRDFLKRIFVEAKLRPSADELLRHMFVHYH

[8] = target: Epidermal growth factor receptor (Homo sapiens) (UniProt P00533); experiment: Inhibition of EGFR Lys1 labeling site harbouring GLWIPEGEKVKIPVAIKELR in human Huh-7 cell lysate at 1 uM by KiNativ Profiling analysis relative to control; type: subcellular
[9] = target: T3, Serine/threonine-protein kinase Nek1 (Homo sapiens) (UniProt Q96PY6); experiment: Inhibition of NEK1 Lys2 labeling site in human Huh-7 cell lysate at 1 uM by KiNativ Profiling analysis relative to control; type: subcellular
T3 sequence (whole entry): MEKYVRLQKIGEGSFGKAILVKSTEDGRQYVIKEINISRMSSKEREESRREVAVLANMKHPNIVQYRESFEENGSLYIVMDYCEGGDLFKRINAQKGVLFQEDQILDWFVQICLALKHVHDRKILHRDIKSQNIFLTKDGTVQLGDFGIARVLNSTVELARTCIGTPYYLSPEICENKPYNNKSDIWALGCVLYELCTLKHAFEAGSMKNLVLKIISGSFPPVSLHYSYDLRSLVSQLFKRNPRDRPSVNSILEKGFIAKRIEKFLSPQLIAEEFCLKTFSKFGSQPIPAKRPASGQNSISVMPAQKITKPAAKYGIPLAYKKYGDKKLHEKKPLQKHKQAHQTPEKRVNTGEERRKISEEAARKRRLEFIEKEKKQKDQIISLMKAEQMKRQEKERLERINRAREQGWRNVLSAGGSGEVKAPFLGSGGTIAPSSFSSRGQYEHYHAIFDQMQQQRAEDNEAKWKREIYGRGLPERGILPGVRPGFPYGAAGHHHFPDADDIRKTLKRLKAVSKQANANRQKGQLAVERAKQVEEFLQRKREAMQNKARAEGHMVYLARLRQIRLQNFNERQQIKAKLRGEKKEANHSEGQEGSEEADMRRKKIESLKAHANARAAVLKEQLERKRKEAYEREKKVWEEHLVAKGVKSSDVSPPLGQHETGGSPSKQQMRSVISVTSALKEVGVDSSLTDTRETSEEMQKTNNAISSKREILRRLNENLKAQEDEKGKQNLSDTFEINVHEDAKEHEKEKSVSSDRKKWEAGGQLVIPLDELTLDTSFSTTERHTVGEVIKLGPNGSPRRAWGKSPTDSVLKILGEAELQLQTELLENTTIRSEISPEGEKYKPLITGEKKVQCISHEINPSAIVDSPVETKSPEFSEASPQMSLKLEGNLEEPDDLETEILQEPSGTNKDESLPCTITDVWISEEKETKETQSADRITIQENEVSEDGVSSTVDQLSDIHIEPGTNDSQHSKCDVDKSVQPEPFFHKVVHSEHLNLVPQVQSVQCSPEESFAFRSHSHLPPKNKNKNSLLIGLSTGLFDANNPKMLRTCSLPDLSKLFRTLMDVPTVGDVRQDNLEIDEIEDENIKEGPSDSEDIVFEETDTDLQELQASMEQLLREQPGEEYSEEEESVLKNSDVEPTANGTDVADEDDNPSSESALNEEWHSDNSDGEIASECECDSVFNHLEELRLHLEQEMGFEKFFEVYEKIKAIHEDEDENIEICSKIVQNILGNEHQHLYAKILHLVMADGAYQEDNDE

Dual specificity testis-specific protein kinase 1 (Homo sapiens), sequence (Q15569 whole entry, looked up): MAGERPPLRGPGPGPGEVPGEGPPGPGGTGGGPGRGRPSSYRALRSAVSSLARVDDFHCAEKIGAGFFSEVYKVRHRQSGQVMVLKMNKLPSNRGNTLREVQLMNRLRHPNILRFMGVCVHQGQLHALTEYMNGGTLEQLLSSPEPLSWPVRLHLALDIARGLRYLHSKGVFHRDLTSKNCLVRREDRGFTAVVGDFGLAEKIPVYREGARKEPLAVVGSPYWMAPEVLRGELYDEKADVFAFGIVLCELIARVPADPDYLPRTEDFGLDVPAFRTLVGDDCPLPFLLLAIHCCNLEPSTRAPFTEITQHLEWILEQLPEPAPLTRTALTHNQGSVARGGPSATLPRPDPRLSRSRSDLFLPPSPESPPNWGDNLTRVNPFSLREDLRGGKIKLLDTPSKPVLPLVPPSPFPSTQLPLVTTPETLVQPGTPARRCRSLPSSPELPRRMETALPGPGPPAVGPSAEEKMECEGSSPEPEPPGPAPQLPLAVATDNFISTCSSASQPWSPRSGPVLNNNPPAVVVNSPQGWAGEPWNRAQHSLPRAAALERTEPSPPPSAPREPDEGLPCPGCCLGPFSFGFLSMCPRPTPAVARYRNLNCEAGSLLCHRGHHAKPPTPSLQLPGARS
cAMP-dependent protein kinase catalytic subunit PRKX (Homo sapiens), sequence (P51817 whole entry): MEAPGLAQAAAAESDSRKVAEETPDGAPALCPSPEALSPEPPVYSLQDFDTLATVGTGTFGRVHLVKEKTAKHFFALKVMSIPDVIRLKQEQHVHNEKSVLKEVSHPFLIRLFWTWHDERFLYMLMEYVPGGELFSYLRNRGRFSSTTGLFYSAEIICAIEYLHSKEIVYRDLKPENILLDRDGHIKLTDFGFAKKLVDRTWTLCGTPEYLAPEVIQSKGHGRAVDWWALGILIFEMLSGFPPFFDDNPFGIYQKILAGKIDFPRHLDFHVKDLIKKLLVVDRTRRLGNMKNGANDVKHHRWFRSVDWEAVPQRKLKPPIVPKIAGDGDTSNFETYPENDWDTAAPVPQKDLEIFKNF
Epidermal growth factor receptor (Homo sapiens), sequence (P00533 whole entry): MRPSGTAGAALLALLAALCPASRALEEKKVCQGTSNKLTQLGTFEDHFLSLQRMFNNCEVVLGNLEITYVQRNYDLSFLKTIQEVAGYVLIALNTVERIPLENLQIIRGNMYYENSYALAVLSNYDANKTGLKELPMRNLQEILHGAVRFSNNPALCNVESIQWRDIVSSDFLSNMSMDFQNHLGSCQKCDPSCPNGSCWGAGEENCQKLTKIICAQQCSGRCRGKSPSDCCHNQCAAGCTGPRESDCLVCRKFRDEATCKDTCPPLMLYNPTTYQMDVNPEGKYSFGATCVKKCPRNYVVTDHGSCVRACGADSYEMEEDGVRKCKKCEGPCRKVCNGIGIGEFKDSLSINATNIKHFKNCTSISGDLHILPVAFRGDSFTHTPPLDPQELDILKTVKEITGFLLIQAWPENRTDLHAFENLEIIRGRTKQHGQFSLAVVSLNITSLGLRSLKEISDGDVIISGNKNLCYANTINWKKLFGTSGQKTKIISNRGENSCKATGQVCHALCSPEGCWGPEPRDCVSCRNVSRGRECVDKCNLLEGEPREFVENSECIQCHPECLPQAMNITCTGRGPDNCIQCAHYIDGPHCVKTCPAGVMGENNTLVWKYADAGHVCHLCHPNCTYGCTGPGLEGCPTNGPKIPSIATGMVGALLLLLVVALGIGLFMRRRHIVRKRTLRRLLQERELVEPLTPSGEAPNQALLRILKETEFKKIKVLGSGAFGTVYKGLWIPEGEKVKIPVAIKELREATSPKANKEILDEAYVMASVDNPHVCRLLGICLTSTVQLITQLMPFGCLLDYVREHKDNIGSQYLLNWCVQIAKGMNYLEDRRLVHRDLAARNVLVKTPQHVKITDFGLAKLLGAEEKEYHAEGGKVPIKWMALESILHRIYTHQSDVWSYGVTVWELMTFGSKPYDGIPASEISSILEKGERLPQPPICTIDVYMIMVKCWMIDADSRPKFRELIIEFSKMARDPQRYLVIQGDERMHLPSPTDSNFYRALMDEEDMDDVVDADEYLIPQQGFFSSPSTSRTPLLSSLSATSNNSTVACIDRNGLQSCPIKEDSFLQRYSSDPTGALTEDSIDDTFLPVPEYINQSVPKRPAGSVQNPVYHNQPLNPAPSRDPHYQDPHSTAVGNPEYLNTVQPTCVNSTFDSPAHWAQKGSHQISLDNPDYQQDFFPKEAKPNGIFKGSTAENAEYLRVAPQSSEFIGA
Wee1-like protein kinase (Homo sapiens), sequence (P30291 whole entry, looked up): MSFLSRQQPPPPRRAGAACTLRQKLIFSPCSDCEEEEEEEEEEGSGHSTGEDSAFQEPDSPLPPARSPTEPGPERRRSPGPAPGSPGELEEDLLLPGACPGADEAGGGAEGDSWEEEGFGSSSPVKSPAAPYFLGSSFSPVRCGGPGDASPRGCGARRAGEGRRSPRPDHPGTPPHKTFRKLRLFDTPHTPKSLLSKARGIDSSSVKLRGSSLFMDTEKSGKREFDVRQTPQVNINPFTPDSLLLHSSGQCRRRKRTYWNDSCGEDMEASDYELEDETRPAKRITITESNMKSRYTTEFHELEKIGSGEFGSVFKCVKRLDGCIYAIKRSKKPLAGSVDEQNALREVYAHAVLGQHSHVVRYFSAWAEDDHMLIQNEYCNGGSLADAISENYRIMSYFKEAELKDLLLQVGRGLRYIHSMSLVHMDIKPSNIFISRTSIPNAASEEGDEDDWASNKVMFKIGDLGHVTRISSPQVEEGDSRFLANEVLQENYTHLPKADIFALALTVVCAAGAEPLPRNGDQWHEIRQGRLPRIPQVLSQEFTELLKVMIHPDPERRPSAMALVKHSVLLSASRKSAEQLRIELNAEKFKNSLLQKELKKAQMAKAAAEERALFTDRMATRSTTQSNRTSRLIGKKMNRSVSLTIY
1-phosphatidylinositol 3-phosphate 5-kinase (Homo sapiens), sequence (Q9Y2I7 whole entry): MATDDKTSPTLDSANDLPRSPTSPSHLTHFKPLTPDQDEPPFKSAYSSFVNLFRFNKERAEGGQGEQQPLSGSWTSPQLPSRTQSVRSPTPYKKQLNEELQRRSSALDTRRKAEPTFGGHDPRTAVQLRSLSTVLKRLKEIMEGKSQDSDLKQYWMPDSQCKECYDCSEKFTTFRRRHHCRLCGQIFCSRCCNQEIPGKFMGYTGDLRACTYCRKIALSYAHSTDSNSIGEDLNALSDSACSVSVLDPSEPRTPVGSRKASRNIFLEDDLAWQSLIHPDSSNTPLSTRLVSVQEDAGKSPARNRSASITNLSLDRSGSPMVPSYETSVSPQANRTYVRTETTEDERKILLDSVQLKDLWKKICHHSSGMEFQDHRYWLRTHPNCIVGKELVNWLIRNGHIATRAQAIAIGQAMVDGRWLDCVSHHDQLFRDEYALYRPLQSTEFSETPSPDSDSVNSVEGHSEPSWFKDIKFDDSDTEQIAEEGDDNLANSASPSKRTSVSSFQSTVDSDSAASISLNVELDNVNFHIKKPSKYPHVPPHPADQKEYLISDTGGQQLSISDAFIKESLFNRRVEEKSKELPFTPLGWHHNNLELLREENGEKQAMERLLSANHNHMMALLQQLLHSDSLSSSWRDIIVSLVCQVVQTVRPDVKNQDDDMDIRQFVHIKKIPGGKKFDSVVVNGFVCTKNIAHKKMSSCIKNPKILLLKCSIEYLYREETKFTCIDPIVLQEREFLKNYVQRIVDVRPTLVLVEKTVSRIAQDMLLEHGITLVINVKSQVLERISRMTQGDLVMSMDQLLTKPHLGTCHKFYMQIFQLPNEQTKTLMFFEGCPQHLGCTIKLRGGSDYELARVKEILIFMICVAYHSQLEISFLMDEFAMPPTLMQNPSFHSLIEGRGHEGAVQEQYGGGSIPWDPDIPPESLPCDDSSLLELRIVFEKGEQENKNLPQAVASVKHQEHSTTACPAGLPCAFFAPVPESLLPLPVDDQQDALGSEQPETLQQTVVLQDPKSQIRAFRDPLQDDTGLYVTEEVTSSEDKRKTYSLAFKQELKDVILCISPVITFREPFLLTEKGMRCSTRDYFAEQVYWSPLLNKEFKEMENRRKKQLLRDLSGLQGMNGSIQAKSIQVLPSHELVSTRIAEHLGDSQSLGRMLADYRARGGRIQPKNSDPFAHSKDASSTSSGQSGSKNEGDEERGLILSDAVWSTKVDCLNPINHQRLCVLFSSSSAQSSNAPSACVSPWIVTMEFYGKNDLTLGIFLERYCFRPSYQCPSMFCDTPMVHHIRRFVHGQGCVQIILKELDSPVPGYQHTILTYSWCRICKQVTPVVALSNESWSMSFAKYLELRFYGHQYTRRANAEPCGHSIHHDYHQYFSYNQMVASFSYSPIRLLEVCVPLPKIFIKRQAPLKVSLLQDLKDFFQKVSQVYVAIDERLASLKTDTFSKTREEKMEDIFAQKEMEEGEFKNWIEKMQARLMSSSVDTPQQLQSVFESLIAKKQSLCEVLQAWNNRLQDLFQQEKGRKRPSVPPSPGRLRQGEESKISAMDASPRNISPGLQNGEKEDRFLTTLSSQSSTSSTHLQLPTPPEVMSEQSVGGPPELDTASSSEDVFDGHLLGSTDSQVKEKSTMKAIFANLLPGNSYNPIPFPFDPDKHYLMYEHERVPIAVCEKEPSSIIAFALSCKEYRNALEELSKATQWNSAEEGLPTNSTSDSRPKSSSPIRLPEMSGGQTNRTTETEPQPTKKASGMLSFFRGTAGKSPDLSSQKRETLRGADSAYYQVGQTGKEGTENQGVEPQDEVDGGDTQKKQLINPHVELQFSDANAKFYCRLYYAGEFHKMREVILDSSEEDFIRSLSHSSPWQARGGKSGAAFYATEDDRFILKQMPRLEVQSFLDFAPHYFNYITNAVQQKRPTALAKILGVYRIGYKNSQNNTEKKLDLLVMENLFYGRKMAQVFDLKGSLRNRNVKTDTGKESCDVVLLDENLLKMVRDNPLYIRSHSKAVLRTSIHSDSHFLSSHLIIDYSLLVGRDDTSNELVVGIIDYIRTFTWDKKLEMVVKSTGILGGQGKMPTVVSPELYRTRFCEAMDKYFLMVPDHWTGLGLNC

## CCN1CCN(Cc2ccc(NC(=O)c3ccc(C)c(Oc4ccnc5[nH]ccc45)c3)cc2C(F)(F)F)CC1
[1]
  inhibition: -2.8%
[2]
  inhibition: inactive
[3]
  inhibition: inactive

## CCN1CCN(Cc2ccc(NC(=O)c3ccc(C)c(/C=C/c4cnc5[nH]ccc5c4OC)c3)cc2C(F)(F)F)CC1
[4]
  inhibition: 16.8%
[5]
  inhibition: 7.6%
[6]
  inhibition: 24.4%

## CNc1cc(Oc2cc(C(=O)Nc3cc(N4CCN(C)CC4)cc(C(F)(F)F)c3)ccc2C)ncn1
[7]
  inhibition: 1.9%
[8]
  inhibition: 9.9%
[9]
  inhibition: -1.1%

— ChEMBL document CHEMBL5696442, “Discovery of type II inhibitors of TGFβ-activated kinase 1 (TAK1) and mitogen-activated protein kinase kinase kinase kinase 2 (MAP4K2)” (J Med Chem, 2015)
